Data on 1 compound can be found in US5093342A, “Use of omeprazole as an antimicrobial agent” (priority 1989, dated 1992).

The test system of the test is Campylobacter pylori 8005. Description: in vitro antimicrobial activity, agar plate dilution method (MIC). In kind it is cell-based. The following applies: Helicobacter pylori, 48 h, Brucella Agar containing 5% horse lysed blood, 37° C., 10% carbon dioxide gas, 2 days, inoculum 10^7 cells/ml, read-out: minimal inhibitory concentration (MIC).

≈ marks a conversion by molar mass, not a printed value.

As for `COc1ccc2[nH]c([S+]([O-])Cc3ncc(C)c(OC)c3C)nc2c1` (stereo not shown) [omeprazole, 5-methoxy-2-[[(4-methoxy-3,5-dimethyl-2-pyridinyl)methyl]-sulfinyl]-1H-benzimidazole], the MIC turned out to be 0.39 µg/mL (≈ 1.13 µM).
